Values of other authors, collected in patent publication US6642219B1, “Progestogen-antiprogestogen regimens” (Akzo Nobel N.V., priority 1997, dated 2003).

Experiments:
[1] = in vivo
progesterone receptor = biological target: T1, progesterone receptor (Homo sapiens, UniProt P06401)
T1 sequence (P06401 1-933): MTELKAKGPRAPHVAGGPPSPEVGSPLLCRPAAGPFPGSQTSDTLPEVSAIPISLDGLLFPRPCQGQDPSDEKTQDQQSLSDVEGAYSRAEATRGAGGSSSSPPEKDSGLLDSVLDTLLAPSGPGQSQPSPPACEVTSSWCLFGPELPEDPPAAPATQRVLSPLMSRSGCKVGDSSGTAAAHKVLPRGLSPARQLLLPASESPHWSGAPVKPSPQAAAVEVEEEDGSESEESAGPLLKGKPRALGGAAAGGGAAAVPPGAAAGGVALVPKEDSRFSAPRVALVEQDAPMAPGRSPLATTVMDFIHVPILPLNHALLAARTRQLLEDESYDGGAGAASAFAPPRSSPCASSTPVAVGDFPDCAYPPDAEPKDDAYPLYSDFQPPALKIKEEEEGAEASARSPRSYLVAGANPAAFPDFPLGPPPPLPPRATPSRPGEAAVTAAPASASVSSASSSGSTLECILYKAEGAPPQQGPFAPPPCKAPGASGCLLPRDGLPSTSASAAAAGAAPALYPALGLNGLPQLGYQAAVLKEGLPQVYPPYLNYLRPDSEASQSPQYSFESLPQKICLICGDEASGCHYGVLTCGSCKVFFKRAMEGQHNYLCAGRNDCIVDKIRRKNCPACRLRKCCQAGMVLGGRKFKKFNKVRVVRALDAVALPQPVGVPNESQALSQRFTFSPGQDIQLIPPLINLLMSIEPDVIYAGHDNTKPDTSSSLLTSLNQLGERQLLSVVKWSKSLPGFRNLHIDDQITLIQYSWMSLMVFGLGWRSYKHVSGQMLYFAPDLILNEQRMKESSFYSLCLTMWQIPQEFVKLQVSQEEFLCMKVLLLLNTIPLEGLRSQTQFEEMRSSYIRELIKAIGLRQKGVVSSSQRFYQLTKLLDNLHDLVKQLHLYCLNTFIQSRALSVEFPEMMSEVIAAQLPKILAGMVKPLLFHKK

[2] = based on practically applied doses

## C#C[C@]1(O)CC[C@H]2[C@@H]3CCC4=CC(=O)CC[C@@H]4[C@H]3C(=C)C[C@@]21CC [3-keto-desogestrel]
Progestogenic activity; [2]
  progestogenic activity, compared among each other: relatively equipotent

## C#C[C@]1(O)C=C[C@H]2[C@@H]3CCC4=CC(=O)CC[C@@H]4[C@H]3CC[C@@]21CC [Gestodene]
Progestogenic activity; [2]
  progestogenic potency relative to levonorgestrel, desogestrel and 3-keto-desogestrel: approximately 1.5 times

## C#CC1(O)CC[C@H]2[C@@H]3CCC4=CC(=O)CC[C@@H]4[C@H]3CC[C@@]21CC (stereo partly drawn) [Norgestrel]
Progestogenic activity
  progestogenic potency relative to levonorgestrel: about one-half

## C[C@@H]1C[C@@H]2C(=C3CCC(=O)C=C31)[C@@H](c1ccc(N(C)C)cc1)C[C@@]1(C)[C@H]2CC[C@@]12CCCO2 [Org 31710, (6α,11β,17β)-11-(4-dimethylaminophenyl)-6-methyl-4′,5′-dihydrospiro-[estra-4,9-diene-17,2′-(3′H)-furan]-3-one]
[1]
  half-life: 50 h
Progesterone receptor
  anti-progestogen potency compared with RU 486: somewhat more potent

## CC(=O)c1ccc(C2CC3(C)C(CCC34OCC=C4C)C3CCC4=CC(=O)CCC4=C23)cc1 (stereo not drawn) [Org 33628, (11β,17α)-11-(4-acetylphenyl)-17,23-epoxy-19,24-dinorchola-4,9,20-trien-3-one]
[1]
  half-life: approximately 15 hours
Progesterone receptor
  anti-progestogen potency compared with RU 486: somewhat more potent

## CC#C[C@]1(O)CC[C@H]2[C@@H]3CCC4=CC(=O)CCC4=C3[C@@H](c3ccc(N(C)C)cc3)C[C@@]21C [RU 486, (11β,17β)-11-[4-(demethylamino)-phenyl]-17-hydroxy-17-(1-propynyl)esta-4,9diene-3-one]
[1]
  half-life: ~20 h

## C#C[C@]1(O)CC[C@H]2[C@@H]3CCC4=CCCC[C@@H]4[C@H]3C(=C)C[C@@]21CC [desogestrel, 13-ethyl-11-methylene-18,19-di-nor-17α-pregn-4en-20-yn-17-ol]
Progestogenic activity; [2]
  progestogenic activity, compared among each other: relatively equipotent
